Source: patent publication US9511120B2, “Use of the angiotensin-(1-9) peptide or derivatives thereof, use of vectors overexpressing the ACE2 enzyme that produces angiotensin-(1-9) for preparing medicaments useful for preventing, reverting, inhibiting and/or reducing hypertension and/or inducing vasodilation” (PONTIFICA UNIVERSIDAD CATÓLICA DE CHILE, priority 2012, dated 2016)
Where no end group is shown, it is not given here.

Key:
[1] = test system: hypertensive rats by administration of angiotensin II; assay: Hypertension induced by angiotensin II infusion: body mass, cardiac mass, systolic blood pressure; format: in vivo, rat
Procedure: (§1) Rats were subjected to the model of angiotensin II infusion (Grobe et al.: Am. J. Physiol. 292: H736-42, 2007). The animals were separated randomly into the following experimental groups: controls (Sham or pseudo-operated), infused with angiotensin II (300 ng/kg min), infused with angiotensin II and angiotensin-(1-9) (300 ng/kg min and 602 ng/kg min, respectively), and then infused with angiotensin II, angiotensin-(1-9) and the angiotensin-(1-7) receptor antagonist, A779 (300 ng/kg min, 602 ng/kg min, and 100 ng/kg min, respectively). In all cases the pumps operated at a flow of 0.5 μL/h and were implanted in the right jugular vein through a catheter fitted in an intrascapular subcutaneous pocket under anesthesia with ketamine HCl/xylazine (35 and 7 mg/kg i.p., respectively), for a period of 14 days.
Systolic blood pressure (SBP) was measured by the tail plethysmographic method in the animals. To such end, rats were lightly anesthetized with ethyl ether. The measurement was performed once a week by researchers blind to the treatment (Ocaranza et al. J. Hypertens. 20:413-20, 2002).
The degree of cardiac hypertrophy (CH) was measured by the ratio of the cardiac mass (CM), the body mass (BM) and relative cardiac mass (RCM; [CM/BM]*100) (Ocaranza et al., J. Hypertens. 28:1054-1064, 2010).
Four experimental groups of rats were established as described in Example 1. Group 1 corresponds to rats which were infused with saline (Sham). Group 2 corresponds to rats which were infused with only angiotensin II. Group 3 correspond to rats which were co-infused with angiotensin II and angiotensin-(1-9). And Group 4 corresponds to rats which were co-infused with angiotensin II, angiotensin-(1-9) and A779.

[2] = test system: cardiomyocyte hypertrophy induced by Ang II in vivo; assay: Angiotensin II infusion model: cardiomyocyte hypertrophy (area and perimeter); design: species or system rat
Procedure: as §1
(§2) The middle portion of the left ventricle (LV) was dehydrated at room temperature for 24 h in Bouin and then embedded in paraffin. Sections of 10-15 μm thick were taken and stained with hematoxylin-eosin, to be examined later in a light microscope in order to observe their general morphological characteristics. Cardiomyocyte size was determined according to Nakamura et al. (Circulation, 98:794-9, 1998). Briefly, images of the cells were captured using a Nikon DS Fi1 camera and projected on a monitor using a software program. The cardiomyocyte area and perimeter were measured and recorded, using the Nis-Element program (Ocaranza et al. J. Hypertens., 28:1054-64, 2010). All measurements were performed by a blinded observer, and at least 80 images of cells per animal, which were randomly selected, were analyzed.

[3] = test system: cardiomyocyte hypertrophy of hypertensive rats by pressure overload; assay: Goldblatt model: cardiomyocyte area and perimeter; format: in vivo, rat; details: GB rats
Source text: (§3) Lewis normotensive rats (weight 150±10 g), which were separated randomly into the experimental hypertension model group or GB (Ocaranza et al. J. Hypertens. 20:413-20, 2002) or control group (S) were used. The latter corresponded to pseudo-operated animals. All animals were maintained under controlled conditions of light and darkness and had free access to food and water. Four weeks after surgery and at a blood pressure above 140 mmHg, GB rats were randomized for the chronic administration of angiotensin-(1-9) through an osmotic pump (602 ng kg^−1min^−1) via the jugular vein during two weeks. The animals were euthanized after 6 weeks post-surgery.
as §2, with “Briefly, images of the cells were captured using a Nikon DS Fi1 camera and projected on a monitor using a software program.” left out

collagen I = assay: Goldblatt model: collagen I protein levels in the aortic wall; format: in vivo, rat; details: GB rats
Source text: as §3
For the determination of collagen I and TGFβ-1, 30 μg and 50 μg of total proteins were used, respectively, diluted in SDS reducing buffer (50 mM tris-HCl, pH 7.4, NP-40 10%, NaCl 1M, Na deoxycholate 5%, EDTA 10 mg/mL, SDS 10%, aprotinin 1 mg/mL, leupeptin 0.1 mg/mL, PMSF 10 mM), they were then separated by SDS-PAGE gel electrophoresis 7%, and transferred to nitrocellulose membranes of […] to 300 mA for 1 h. The transfer of proteins was monitored by Ponceau red staining. […]

rat mesenteric arteries = assay: Contractility studies in perfused, pressurized mesenteric arteries; details: arteries with intact endothelium as compared to arteries without endothelium
Procedure: The change in diameter of rat resistance (mesenteric) arteries was determined, they were then perfused and pressurized under physiological conditions, in response to different substances, according to a methodology previously described (Gonzalez et al. Hypertension 45:853-9, 2005). Briefly, male rats (Sprague Dawley, 150-200 g) were euthanized for dissection of mesenteric vascular territory, avoiding direct manipulation of arterial or venous tissue. Mesenteric small arteries (200-300 micrometers) were isolated, surgically eliminating adventitial tissue under a zoom stereo microscope (Olympus SZ61). The arteries were perfused intraluminally into a thermoregulated bath at controlled pressure and flow, with perfusion solution (modified Krebs, KRB) of the following composition, in mmol/L: NaCl, 130; CaCl2, 2.5; NaHCO3, 25; MgSO4, 1.2; NaH2PO4, 1.2; KCl, 4.7; glucose, 5.5, pH 7.4. Before use, KRB was gassed with a mixture of 95% O2 and 5% CO2. For perfusion, the artery was cannulated with a glass micropipette (outer diameter 164μ), secured with 5-0 silk suture. The arteries were perfused with 10-20 μL/min KRB, so as to achieve transmural pressure of 60 mmHg. After a rest period of 20 minutes, each artery was incubated in the presence of a vasoconstrictor (100 μM phenylephrine) for two minutes and an endothelial NO production agonist (1 μM acetylcholine). […]

[4] = co-administered with angiotensin II

For DRVYIHPFH, the “SBP 1st week” value ([1]; 1st week of infusion) was 141 ± 9 mmHg, the “SBP 2nd week” value ([1]; 2nd week of infusion) was 139 ± 11 mmHg and the “Initial SBP” value ([1]; baseline, tail plethysmography) was 123 ± 11 mmHg. For the same sequence, the “decrease of SBP as compared to angiotensin II” value ([1]; co-administration with angiotensin II) was 10%, the CM ([1]; rats, infusion for 14 days) was 984 ± 26 mg and the “RCM (MV/MC)” value ([1]; rats, infusion for 14 days) was 386 ± 36. The “reduction in cell area as compared to the group infused with angiotensin II alone” value [2, 4] was 20%, the “reduction in cell perimeter as compared to the group infused with angiotensin II alone” value [2, 4] was 11% and the cardiomyocyte cell area ([2]; left ventricle, two weeks) was 227±2 μm^2. The cardiomyocyte perimeter ([2]; left ventricle, two weeks) was 59.1±0.3 μm, the “decrease of cardiomyocyte area as compared to hypertensive rats” value [3] was 16% and the “decrease of cardiomyocyte perimeter as compared to hypertensive rats” value [3] was 22%. For the same sequence, the “reduction of the increase of collagen in the aorta wall” value (collagen I) was 54% and the “diameter of resistance arteries” value (rat mesenteric arteries) was “increased in a dose-dependent manner”.
